According to ChEMBL document CHEMBL1150808, “General behavior, toxicity, and cytotoxic activity of elenoside, a lignan from Justicia hyssopifolia” (J Nat Prod, 2001):

Columns and labels:
[1] = system: RPMI-8226; assay: Growth inhibition of human RPMI8226 cells at 100 uM; assay type: functional; conditions: read-out: GI
[2] = system: M19-MEL; assay: Growth inhibition of human M19-MEL cells at 100 uM; assay type: functional; conditions: read-out: GI
[3] = system: SNB-19; assay: Growth inhibition of human SNB19 cells; assay type: functional
[4] = system: NCI-H522; assay: Growth inhibition of human NCI-H522 cells at 100 uM; assay type: functional; conditions: read-out: GI
[5] = system: Mus musculus; assay: Toxicity in Swiss albino mouse assessed as loss of righting reflex at 50 mg/kg, ip after 1 hr by Lim test; assay type: organism-based; design: dose 50 mg/kg, route intraperitoneal; conditions: in vivo
[6] = system: HCT-116; assay: Growth inhibition of human HCT116 cells at 100 uM; assay type: functional; conditions: read-out: GI
[7] = system: CCRF-CEM; assay: Growth inhibition of human CCRF-CEM cells; assay type: functional
[8] = species on record: Mus musculus; assay: Toxicity in Swiss albino mouse assessed as loss of sight after 30 mins by Irwin test; assay type: organism-based; conditions: in vivo, 0.5 h
[9] = system: NCI-H23; assay: Growth inhibition of human NCI-H23 cells at 100 uM; assay type: functional; conditions: read-out: GI
[10] = species on record: Mus musculus; assay: Toxicity in Swiss albino mouse assessed as reduction in equilibrium after 180 mins by Irwin test; assay type: organism-based; conditions: in vivo, 3 h
[11] = system: DMS-273; assay: Growth inhibition of human DMS273 cells at 100 uM; assay type: functional; conditions: read-out: GI
[12] = species on record: Mus musculus; assay: Toxicity in Swiss albino mouse assessed as reduction in sensory-motor response by Irwin test; assay type: organism-based; conditions: in vivo
[13] = species on record: Mus musculus; assay: Toxicity in Swiss albino mouse assessed as loss of hypotonic gait after 30 mins by Irwin test; assay type: organism-based; conditions: in vivo, 0.5 h
[14] = system: UO-31; assay: Growth inhibition of human UO31 cells at 100 uM; assay type: functional; conditions: read-out: GI
[15] = species on record: Mus musculus; assay: Toxicity in Swiss albino mouse assessed as reduction in motor affective response by Irwin test; assay type: organism-based; conditions: in vivo
[16] = species on record: Mus musculus; assay: Toxicity in Swiss albino mouse assessed as loss of righting reflex after 30 mins by Irwin test; assay type: organism-based; conditions: in vivo, 0.5 h
[17] = system: SNB-75; assay: Growth inhibition of human SNB75 cells at 100 uM; assay type: functional; conditions: read-out: GI
[18] = system: SF-268; assay: Growth inhibition of human SF268 cells at 100 uM; assay type: functional; conditions: read-out: GI
[19] = system: Mus musculus; assay: Toxicity in Swiss albino mouse assessed as loss of muscle tone at 10 mg/kg, ip after 1 hr by Lim test; assay type: organism-based, Muscle tissue; design: dose 10 mg/kg, route intraperitoneal; conditions: in vivo
[20] = system: HCT-116; assay: Growth inhibition of human HCT116 cells; assay type: functional
[21] = system: SNB-75; assay: Growth inhibition of human SNB75 cells; assay type: functional
[22] = system: OVCAR-3; assay: Growth inhibition of human OVCAR-3 cells at 100 uM; assay type: functional; conditions: read-out: GI
[23] = system: Mus musculus; assay: Toxicity in Swiss albino mouse assessed as loss of spontaneous movement at 25 mg/kg, ip after 1 hr by Lim test; assay type: organism-based; design: dose 25 mg/kg, route intraperitoneal; conditions: in vivo
[24] = species on record: Mus musculus; assay: Toxicity in Swiss albino mouse assessed as involvement of autonomic nervous system; assay type: organism-based; conditions: in vivo
[25] = system: SNB-19; assay: Growth inhibition of human SNB19 cells at 100 uM; assay type: functional; conditions: read-out: GI
[26] = system: Mus musculus; assay: Toxicity in Swiss albino mouse assessed as loss of muscle tone at 25 mg/kg, ip after 1 hr by Lim test; assay type: organism-based, Muscle tissue; design: dose 25 mg/kg, route intraperitoneal; conditions: in vivo
[27] = system: OVCAR-4; assay: Growth inhibition of human OVCAR4 cells; assay type: functional
[28] = system: Mus musculus; assay: Toxicity in Swiss albino mouse assessed as loss of righting reflex at 10 mg/kg, ip after 1 hr by Lim test; assay type: organism-based; design: dose 10 mg/kg, route intraperitoneal; conditions: in vivo
[29] = system: K562; assay: Growth inhibition of human K562 cells at 100 uM; assay type: functional; conditions: read-out: GI
[30] = system: UACC-257; assay: Growth inhibition of human UACC257 cells; assay type: functional
[31] = system: UACC-257; assay: Growth inhibition of human UACC257 cells at 100 uM; assay type: functional; conditions: read-out: GI
[32] = species on record: Mus musculus; assay: Toxicity in Swiss albino mouse assessed as reduction in muscular tone after 180 mins by Irwin test; assay type: organism-based; conditions: in vivo, 3 h
[33] = system: Mus musculus; assay: Toxicity in Swiss albino mouse assessed as loss of spontaneous movement at 50 mg/kg, ip after 1 hr by Lim test; assay type: organism-based; design: dose 50 mg/kg, route intraperitoneal; conditions: in vivo
[34] = system: NCI-H23; assay: Growth inhibition of human NCI-H23 cells
[35] = species on record: Mus musculus; assay: Toxicity in Swiss albino mouse assessed as reduction in spontaneous activity after 60 mins by Irwin test; assay type: organism-based; conditions: in vivo, 1 h
[36] = species on record: Mus musculus; assay: Toxicity in Swiss albino mouse assessed as reduction in tremors by Irwin test; assay type: organism-based; conditions: in vivo
[37] = system: Mus musculus; assay: Toxicity in Swiss albino mouse assessed as loss of righting reflex at 25 mg/kg, ip after 1 hr by Lim test; assay type: organism-based; design: dose 25 mg/kg, route intraperitoneal; conditions: in vivo
[38] = system: M19-MEL; assay: Growth inhibition of human M19-MEL cells; assay type: functional
[39] = system: MOLT-4; assay: Growth inhibition of human MOLT4 cells; assay type: functional
[40] = system: SK-MEL-2; assay: Growth inhibition of human SK-MEL-2 cells at 100 uM; assay type: functional; conditions: read-out: GI
[41] = system: NCI-H226; assay: Growth inhibition of human NCI-H226 cells at 100 uM; assay type: functional; conditions: read-out: GI
[42] = system: DMS-273; assay: Growth inhibition of human DMS273 cells; assay type: functional
[43] = system: HCC 2998; assay: Growth inhibition of human HCC2998 cells; assay type: functional
[44] = system: HCC 2998; assay: Growth inhibition of human HCC2998 cells at 100 uM; assay type: functional; conditions: read-out: GI
[45] = system: Mus musculus; assay: Toxicity in Swiss albino mouse assessed as loss of spontaneous movement at 10 mg/kg, ip after 1 hr by Lim test; assay type: organism-based; design: dose 10 mg/kg, route intraperitoneal; conditions: in vivo
[46] = system: NCI-H522; assay: Growth inhibition of human NCI-H522 cells; assay type: functional
[47] = system: UO-31; assay: Growth inhibition of human UO31 cells; assay type: functional
[48] = system: SK-MEL-2; assay: Growth inhibition of human SK-MEL-2 cells; assay type: functional
[49] = system: RPMI-8226; assay: Growth inhibition of human RPMI8226 cells; assay type: functional
[50] = system: NCI-H226; assay: Growth inhibition of human NCI-H226 cells; assay type: functional
[51] = system: Mus musculus; assay: Toxicity in Swiss albino mouse assessed as loss of muscle tone at 50 mg/kg, ip after 1 hr by Lim test; assay type: organism-based, Muscle tissue; design: dose 50 mg/kg, route intraperitoneal; conditions: in vivo
[52] = Toxicity in Swiss albino mouse assessed as death after 5 days assessed after 24 hrs post treatment by Irwin test; assay type: organism-based; conditions: in vivo
[53] = system: CCRF-CEM; assay: Growth inhibition of human CCRF-CEM cells at 100 uM; assay type: functional; conditions: read-out: GI
[54] = system: SK-MEL-5; assay: Growth inhibition of human SK-MEL-5 cells at 100 uM; assay type: functional; conditions: read-out: GI
[55] = system: MOLT-4; assay: Growth inhibition of human MOLT4 cells at 100 uM; assay type: functional; conditions: read-out: GI
[56] = system: K562; assay: Growth inhibition of human K562 cells; assay type: functional
[57] = species on record: Mus musculus; assay: Toxicity in Swiss albino mouse assessed as reduction in convulsions by Irwin test; assay type: organism-based; conditions: in vivo
[58] = system: KM12; assay: Growth inhibition of human KM12 cells; assay type: functional
[59] = system: KM12; assay: Growth inhibition of human KM12 cells at 100 uM; assay type: functional; conditions: read-out: GI
[60] = system: SF-268; assay: Growth inhibition of human SF268 cells; assay type: functional
[61] = species on record: Mus musculus; assay: Toxicity in Swiss albino mouse assessed as reduction in twitches by Irwin test; assay type: organism-based; conditions: in vivo
[62] = system: OVCAR-4; assay: Growth inhibition of human OVCAR4 cells at 100 uM; assay type: functional; conditions: read-out: GI
[63] = system: OVCAR-3; assay: Growth inhibition of human OVCAR-3 cells; assay type: functional
[64] = system: SK-MEL-5; assay: Growth inhibition of human SK-MEL-5 cells; assay type: functional

Compound `O=C1OCc2c1cc1ccc(O)c(O[C@@H]3O[C@H](CO)[C@@H](O)[C@H](O)[C@H]3O)c1c2-c1ccc2c(c1)OCO2` [ELENOSIDE] has an inhibition of growth at 100 µM [1] of 97%, an inhibition of growth at 100 µM [2] of 81% and a GI50 [3] of 36 µM. The inhibition of growth at 100 µM [4] was 126%, the Activity [5] was 20% and the inhibition of growth at 100 µM [6] was 77%. For the same compound, the GI50 [7] was 34.9 µM, the Activity [8] was “Toxic” and the inhibition of growth at 100 µM [9] was 72%. The Activity [10] was “Toxic”, the inhibition of growth at 100 µM [11] was 67% and the Activity [12] was “Dose-dependent effect”. The Activity [13] was “Toxic”, the inhibition of growth at 100 µM [14] was 80% and the Activity [15] was “Dose-dependent effect”. The Activity [16] was “Toxic”, the inhibition of growth at 100 µM [17] was 66% and the inhibition of growth at 100 µM [18] was 70%. For the same compound, the Activity [19] was 90%, the GI50 [20] was 39.7 µM and the GI50 [21] was 55.2 µM. For the same compound, the inhibition of growth at 100 µM [22] was 60%, the Activity [23] was 50% and the Activity [24] was “Toxic”. For the same compound, the inhibition of growth at 100 µM [25] was 81%, the Activity [26] was 50% and the GI50 [27] was 56.2 µM. The Activity [28] was 40%, the inhibition of growth at 100 µM [29] was 79% and the GI50 [30] was 37.9 µM. For the same compound, the inhibition of growth at 100 µM [31] was 72%, the Activity [32] was “Dose-dependent effect” and the Activity [33] was 60%. For the same compound, the GI50 [34] was 47.5 µM, the Activity [35] was “Toxic” and the Activity [36] was “Non-toxic”. It also gave an Activity [37] of 20%, a GI50 [38] of 38.2 µM and a GI50 [39] of 34.3 µM. It also gave an inhibition of growth at 100 µM [40] of 84%, an inhibition of growth at 100 µM [41] of 72% and a GI50 [42] of 47.5 µM. For the same compound, the GI50 [43] was 38.2 µM, the inhibition of growth at 100 µM [44] was 87% and the Activity [45] was 90%. The GI50 [46] was 22.6 µM, the GI50 [47] was 27.2 µM and the GI50 [48] was 33.5 µM. For the same compound, the GI50 [49] was 34.6 µM, the GI50 [50] was 48.4 µM and the Activity [51] was 60%. The LD50 at 5 days [52] was 3.05 mg/kg, the inhibition of growth at 100 µM [53] was 84% and the inhibition of growth at 100 µM [54] was 114%. The inhibition of growth at 100 µM [55] was 88%, the GI50 [56] was 39.5 µM and the Activity [57] was “Non-toxic”. The GI50 [58] was 23.4 µM, the inhibition of growth at 100 µM [59] was 77% and the GI50 [60] was 57.1 µM. For the same compound, the Activity [61] was “Non-toxic”, the inhibition of growth at 100 µM [62] was 66% and the GI50 [63] was 64.6 µM. It also gave a GI50 [64] of 26.2 µM.
